Results: article PMC8422859, “A Novel Oral Arginase 1/2 Inhibitor Enhances the Antitumor Effect of PD-1 Inhibition in Murine Experimental Gliomas by Altering the Immunosuppressive Environment” (Frontiers in Oncology, 2021)

Experiments:
T cell proliferation = tested on: T cell proliferation; parameters: method as in PMID 29254508; details: cited from earlier work
[1] = tested on: CT26, LLC, B16, and 4T1 tumors; parameters: method as in PMID 29254508; details: B16, 4T1; cited from earlier work
U87-MG glioma cells = test: Matrigel invasion assay, U87-MG co-cultured with BV2 microglia; type: cell-based, human
Method: (§1) BV2 cells were plated onto a 24-well plate at the density of 4×10^4. After 24 h, the invasion assay was performed with tissue culture inserts (6.5 mm Transwell® with 8.0 µm Pore Polycarbonate Membrane Insert, Corning, NY, USA) coated with the Growth Factor Reduced Matrigel™ Matrix (BD Biosciences, San Diego. CA, USA). The Matrigel™ Matrix (50 µL of 1 mg/mL stock solution diluted in fresh DMEM) was dried under sterile conditions (37°C) for 5–6 h. The medium in BV2 cultures was replaced with fresh one 1 h before seeding glioblastoma cells onto the inserts, then LN18 and U87 glioblastoma cells were seeded at 2×10^4/insert on Matrigel-covered membranes in a serum-reduced medium (2% FBS). Untreated glioblastoma cells co-cultured with or without BV2 cells served as positive and negative controls, respectively. Cells were treated with the arginase-1 inhibitors OAT-90, OAT-1617 and OAT-1746 solved in PBS. The cultures were kept in incubator at 37°C with humidified air containing 5% CO2. After 18 h cells were fixed in ice-cold methanol and cell nuclei stained with DAPI (4′,6-Diamidino-2-Phenylindole; 1 µg/mL, Sigma). The membranes from Transwell® inserts were cut out and images were acquired using a fluorescence microscope (Leica DM4000B, 10x lens) from the 5 independent fields (bottom; top; left; right side and the middle). Numbers of invading cells were counted using the ImageJ software (NIH, Bethesda, MD, USA). All experiments were performed three times, in duplicates.

LN18 glioma cells = test: Matrigel invasion assay, LN18 co-cultured with BV2 microglia; type: cell-based, human; details: 11 µM, co-culture with BV2, 18 h
Method: as §1, with “After 18 h cells were fixed in ice-cold methanol and cell nuclei stained with DAPI (4′,6-Diamidino-2-Phenylindole; 1 µg/mL, Sigma).” left out, “All experiments were performed three times, in duplicates.” left out

recombinant human ARG2 = molecular target: T1, recombinant human ARG2 (Homo sapiens, UniProt P78540); test: Recombinant arginase activity assay, hARG2; type: biochemical; details: 1 h at 37°C, pH 7.4, 10 mM L-arginine, urea detection; read-out: Inhibition of recombinant hARG2: IC50
T1 construct: made in house; host or cells: E. coli
T1 sequence (P78540 23-354): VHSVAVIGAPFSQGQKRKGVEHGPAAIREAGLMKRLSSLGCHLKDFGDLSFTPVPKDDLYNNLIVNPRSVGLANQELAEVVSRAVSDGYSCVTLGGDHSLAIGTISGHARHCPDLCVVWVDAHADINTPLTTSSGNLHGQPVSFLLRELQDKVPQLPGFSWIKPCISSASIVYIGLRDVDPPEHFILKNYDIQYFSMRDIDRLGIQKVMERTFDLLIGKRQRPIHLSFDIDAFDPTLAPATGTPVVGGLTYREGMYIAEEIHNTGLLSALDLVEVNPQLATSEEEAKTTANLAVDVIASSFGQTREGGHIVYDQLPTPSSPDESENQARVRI
Method: (§2) The inhibitory activity towards hARG1 and hARG2 enzymes was assessed using recombinant enzymes biosynthesized using a prokaryotic expression system (E. coli) and purified by fast protein liquid chromatography (FPLC). Briefly, recombinant enzymes were incubated with the tested compounds for 1 h at 37°C in the reaction buffer (100 mM sodium phosphate buffer, 130 mM NaCl, 1 mg/mL BSA, pH 7.4) containing substrate (10 mM L-arginine hydrochloride) and cofactor (200 µM MnCl2). The assay is based on the detection of urea, which is generated during the conversion of L-arginine into L-ornithine catalyzed by arginases. To visualize the product, we adding a mixture of reagent A (4 mM oPA, 50 mM boric acid, 1 M sulfuric acid, 0.03% Brij-35) and reagent B (4 mM NED, 50 mM boric acid, 1 M sulfuric acid, 0.03% Brij-35) in equal proportions. The absorbance was measured at 515 nm. The urea production in the absence of any tested compound was considered as maximal enzyme activity. The absorbance in the absence of arginase (background) was considered as zero activity. Two reference compounds OAT-81 (ABH, no. 222638-65-5) and OAT-90 (2-amino-6-borono-2-(2-(3-(2,4-dichlorophenyl)propyloamino)ethyl) hexanoic acid, and two novel inhibitors OAT-1617 and OAT-1746 (the last three synthesized at OncoArendi Therapeutics) were tested. Normalized values were analyzed using GraphPad Prism 7.0 software and the IC50 values were determined.

recombinant human ARG1 = molecular target: T2, recombinant human ARG1 (Homo sapiens, UniProt P05089); test: Recombinant arginase activity assay, hARG1; type: biochemical; details: 1 h at 37°C, pH 7.4, 10 mM L-arginine, urea detection; read-out: Inhibition of recombinant hARG1: IC50
T2 construct: made in house; host or cells: E. coli
T2 sequence (P05089 1-322): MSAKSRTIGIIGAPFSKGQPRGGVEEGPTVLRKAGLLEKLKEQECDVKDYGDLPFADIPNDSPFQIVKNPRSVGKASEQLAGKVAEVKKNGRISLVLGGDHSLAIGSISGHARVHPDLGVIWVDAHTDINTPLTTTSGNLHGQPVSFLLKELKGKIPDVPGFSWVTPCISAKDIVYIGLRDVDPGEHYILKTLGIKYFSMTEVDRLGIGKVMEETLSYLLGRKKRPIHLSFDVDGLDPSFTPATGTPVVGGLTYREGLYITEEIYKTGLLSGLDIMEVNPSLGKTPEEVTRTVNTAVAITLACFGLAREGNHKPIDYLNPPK
Method: as §2

Structure (SMILES) | myeloid cell-mediated suppression of T cell proliferation in vitro (T cell proliferation) | tumor growth in mouse models of non-CNS tumors [1] | microglia-induced invasion of U87-MG cells (U87-MG glioma cells; 11 µM, co-culture with BV2, 18 h) | concentration dependence of the inhibitory effect on glioma invasion (U87-MG glioma cells; 0.1 and 11 µM, U87-MG with BV2) | microglia-induced invasion of LN18 cells (LN18 glioma cells) | IC50 (recombinant human ARG2) [nM] | IC50 (recombinant human ARG1) [nM]
C[C@H](N)C(=O)N1C[C@H](CCCB(O)O)[C@](N)(C(=O)O)C1 [CB-1158] | blocked | reduced tumor growth | – | – | – | – | –
NC(CCCCB(O)O)(CCNCCCc1ccc(Cl)cc1Cl)C(=O)O (stereo not drawn) [OAT-90, 2-amino-6-borono-2-(2-(3-(2,4-dichlorophenyl)propyloamino)ethyl) hexanoic acid, reference compound] | – | – | effectively reduced glioma invasion | this dependence was not observed | effectively reduced glioma invasion | 796 | 151
N[C@@H](CCCCB(O)O)C(=O)O [Ref.comp. 1, ABH] | – | – | – | – | – | 2670 | 1080
